From US4330529A, “Antibacterial composition” (Fujisawa Pharmaceutical Co., Ltd., priority 1979, dated 1982)
In brackets after ≈: the same amount, converted by molar mass. Read-outs that look alike come from different tables or passages of the source.

Key:
[1] = tested on: Pseudomonas aeruginosa No.9; assay: MIC and FIC, Nutrient agar, multiple inoculator (Test 4); format: cell-based; details: P. aeruginosa No.9, 10^8 cells/ml, 20 h
Method: (§1) After the incubation was carried out at 37° C. for 20 hours, MIC values were determined.
(§2) FIC values and FIC Index were calculated in substantially the same manner as described in Test 1.

[2] = tested on: Escherichia coli No.14; assay: as above; format: cell-based; details: E. coli No.14, 10^8 cells/ml, 20 h
Method: as §1

[3] = tested on: Pseudomonas aeruginosa No.15; assay: as above; format: cell-based; details: P. aeruginosa No.15, 10^8 cells/ml, 20 h
Method: as §1, §2

[4] = tested on: Pseudomonas aeruginosa No.14; assay: as above; format: cell-based; details: P. aeruginosa No.14, 10^8 cells/ml, 20 h
Method: as §1, §2

[5] = tested on: Pseudomonas aeruginosa No.7; assay: as above; format: cell-based; details: P. aeruginosa No.7, 10^8 cells/ml, 20 h
Method: as §1, §2

[6] = tested on: Pseudomonas aeruginosa No.5; assay: MIC and FIC, Nutrient agar, multiple inoculator (Tests 4, 5); format: cell-based; details: P. aeruginosa No.5, 10^8 cells/ml, 20 h
Method: as §1

[7] = tested on: Citrobacter freundii 35; assay: MIC and FIC, Nutrient agar (Tests 6, 7, 9); format: cell-based; details: C. freundii 35, 18 h
[8] = tested on: Escherichia coli 82; assay: MIC and FIC, Nutrient agar (Test 7); format: cell-based; details: E. coli 82, 18 h
Method: as §2

[9] = tested on: Proteus vulgaris 7; assay: MIC and FIC, Nutrient agar (Tests 7, 9); format: cell-based; details: Proteus vulgaris, 7, 18 h, P. vulgaris 7
[10] = tested on: Proteus mirabilis 48; assay: MIC and FIC, Nutrient agar (Test 7); format: cell-based; details: P. mirabilis 48, 18 h
Method: as §2

[11] = tested on: Pseudomonas aeruginosa 77; assay: MIC and FIC, Nutrient agar (Test 7); format: cell-based; details: P. aeruginosa 77, 18 h
Method: as §2

[12] = tested on: Staphylococcus aureus 2; assay: MIC and FIC, Nutrient agar (Test 7); format: cell-based; details: S. aureus 2, 18 h
Method: as §2

[13] = tested on: Enterobacter aerogenes 25; assay: microbe, parasite or virus in culture; details: Klebsiella aerogenes, 25, 18 h
[14] = tested on: Enterobacter aerogenes 7; assay: MIC and FIC, Nutrient agar (Tests 6, 7, 9); format: cell-based; details: E. aerogenes 7, 18 h
Method: as §2

[15] = tested on: Serratia marcescens 27; assay: MIC and FIC, Nutrient agar (Test 7); format: cell-based; details: S. marcescens 27, 18 h
Method: as §2

[16] = tested on: Staphylococcus aureus 1; assay: MIC and FIC, Nutrient agar (Test 7); format: cell-based; details: S. aureus 1, 18 h
Method: as §2

[17] = tested on: Proteus mirabilis 5; assay: MIC and FIC, Nutrient agar (Test 7); format: cell-based; details: P. mirabilis 5, 18 h
Method: as §2

[18] = tested on: Pseudomonas aeruginosa 42; assay: MIC and FIC, Nutrient agar (Test 7); format: cell-based
Method: as §2

[19] = tested on: Enterobacter cloacae 18; assay: MIC and FIC, Nutrient agar (Tests 7, 9); format: cell-based; details: Enterobacter cloacae, 18, 18 h, E. cloacae 18, read-out: MIC
Method: as §2

[20] = tested on: Escherichia coli 116; assay: MIC and FIC, Nutrient agar (Test 7); format: cell-based; details: E. coli 116, 18 h
Method: as §2

[21] = tested on: Citrobacter freundii 63; assay: MIC and FIC, Nutrient agar (Test 9); format: cell-based; details: C. freundii 63, 18 h
Method: as §2

[22] = tested on: Serratia marcescens 4; assay: MIC and FIC, Nutrient agar (Test 9); format: cell-based; details: S. marcescens 4, 18 h
Method: as §2

[23] = tested on: Proteus vulgaris 22; assay: MIC and FIC, Nutrient agar (Test 9); format: cell-based; details: P. vulgaris 22, 18 h
Method: as §2

[24] = tested on: Klebsiella pneumoniae 8; assay: Isobologram, growth in Nutrient broth in various combination ratios (Test 8); format: cell-based; parameters: key: +: the test microorganism grew; -: the test microorganism did not grow; details: phosphonic acid salt 0
Method: After the incubation was carried out at 37° C. for 18 hours, the growth of the test organism was observed.

[25] = tested on: Escherichia coli 99; assay: MIC and FIC, Nutrient agar (Test 6); details: E. coli 99; 18 h
Method: as §2

[26] = tested on: Pseudomonas aeruginosa No.13; assay: MIC and FIC, Nutrient agar, multiple inoculator (Test 5); format: cell-based; details: P. aeruginosa No.13; 10^8 cells/ml, 20 h
Method: as §1, §2

[27] = tested on: Pseudomonas aeruginosa No.11; assay: as above; format: cell-based; details: P. aeruginosa No.11; 10^8 cells/ml, 20 h
Method: as §1, §2

[28] = tested on: Staphylococcus aureus 3; assay: MIC and FIC, Nutrient agar (Tests 6, 7); format: cell-based; details: S. aureus 3; 18 h
Method: as §2

[29] = tested on: Pseudomonas aeruginosa No.12; assay: MIC and FIC, Nutrient agar, multiple inoculator (Test 5); format: cell-based; details: P. aeruginosa No.12; 10^8 cells/ml, 20 h
Method: as §1, §2

[30] = tested on: Proteus vulgaris 5; assay: MIC and FIC, Nutrient agar (Test 6); format: cell-based; details: P. vulgaris 5; 18 h
Method: as §2

[31] = tested on: Serratia marcescens 9; assay: MIC and FIC, Nutrient agar (Test 6); format: cell-based; details: S. marcescens 9; 18 h
Method: as §2

[32] = tested on: Pseudomonas aeruginosa No.18; assay: MIC and FIC, Nutrient agar, multiple inoculator (Test 5); format: cell-based; details: P. aeruginosa No.18; 10^8 cells/ml, 20 h
Method: as §1, §2

[33] = Klebsiella aerogenes, read-out: MIC

Q: For `CC1(C)S[C@@H]2[C@H](NC(=O)C(C(=O)O)c3ccccc3)C(=O)N2[C@H]1C(=O)O` (some centres unmarked) [B (Table 6), carbenicillin], which MIC [1] is on record?
A: The MIC was greater than 800 µg/mL.

Q: And the MIC [2]?
A: The MIC was 12.5 µg/mL.

Q: And the MIC [3]?
A: Its MIC is 800 µg/mL.

Q: What about the MIC [4] of the same compound?
A: The MIC was greater than 800 µg/mL.

Q: And the MIC [5]?
A: The MIC was greater than 800 µg/mL.

Q: And the MIC ([6]; Pseudomonas aeruginosa, read-out: MIC)?
A: The MIC was 50 µg/mL.

Q: What does the source list for `NC[C@@H]1CC[C@@H](N)[C@@H](O[C@H]2[C@H](O)[C@@H](O[C@H]3O[C@H](CO)[C@@H](O)[C@H](N)[C@H]3O)[C@H](N)C[C@@H]2N)O1` [B (Table 10), dibekacin]?
A: MIC ([7]; Citrobacter freundii, 35, 18 h): 6.25 µg/mL; MIC [8]: 6.25 µg/mL; MIC [9]: 50 µg/mL; MIC [10]: 12.5 µg/mL; MIC [11]: 3.13 µg/mL; MIC [12]: 1.56 µg/mL; MIC [13]: 6.25 µg/mL (≈ 13.8 µM)

Q: With `NCC[C@H](O)C(=O)N[C@@H]1C[C@H](N)[C@@H](O[C@H]2O[C@H](CN)[C@@H](O)[C@H](O)[C@H]2O)[C@H](O)[C@H]1O[C@H]1O[C@H](CO)[C@@H](O)[C@H](N)[C@H]1O` [B (Table 11), amikacin] as the compound, how does the MIC [14, 33] read?
A: Its MIC is 6.25 µg/mL.

Q: And the MIC [15]?
A: The MIC was 12.5 µg/mL.

Q: And the MIC [16]?
A: The MIC was 0.78 µg/mL.

Q: What about the MIC [17] of the same compound?
A: The MIC was 3.13 µg/mL.

Q: And the MIC ([18]; Pseudomonas aeruginosa, P. aeruginosa 42, 18 h, read-out: MIC)?
A: The MIC was 6.25 µg/mL.

Q: How did the MIC [19] turn out when `NC[C@H]1O[C@H](O[C@H]2[C@H](O)[C@@H](O[C@H]3O[C@H](CO)[C@@H](O)[C@H](N)[C@H]3O)[C@H](N)C[C@@H]2N)[C@H](N)[C@@H](O)[C@@H]1O` [B (Table 12), bekanamycin] was run?
A: The MIC was 6.25 µg/mL.

Q: And the MIC [14, 33]?
A: Its MIC is 6.25 µg/mL.

Q: And the MIC [20]?
A: The MIC was 200 µg/mL.

Q: What about the MIC ([18]; Pseudomonas aeruginosa, 42, 18 h) of the same compound?
A: The MIC was 100 µg/mL.

Q: For `CC1=C(C(=O)O)N2C(=O)[C@@H](NC(=O)[C@H](N)c3ccccc3)[C@H]2SC1` [B (Table 14), Cephalexin], which MIC [19] is on record?
A: Its MIC is 100 µg/mL.

Q: And the MIC [21]?
A: Its MIC is 400 µg/mL.

Q: What about the MIC [14, 33] of the same compound?
A: Its MIC is 100 µg/mL.

Q: And the MIC [22]?
A: Its MIC is 400 µg/mL.

Q: And the MIC [23]?
A: Its MIC is 25 µg/mL.

Q: What does the source list for gentamicin [B (Table 7)]?
A: MIC [7]: 3.13 µg/mL; growth of the test organism ([24]; gentamicin sulfate 0.001 mcg/ml): +; growth of the test organism ([24]; gentamicin sulfate 0.003 mcg/ml): +; growth of the test organism ([24]; gentamicin sulfate 0.006 mcg/ml): +; growth of the test organism ([24]; gentamicin sulfate 0.01 mcg/ml): +; growth of the test organism ([24]; gentamicin sulfate 0.025 mcg/ml): +; growth of the test organism ([24]; gentamicin sulfate 0.05 mcg/ml): -; MIC [25]: 12.5 µg/mL; MIC [14]: 6.25 µg/mL; MIC [26]: 100 µg/mL; MIC [27]: 3.13 µg/mL; MIC [28]: 0.39 µg/mL; MIC [29]: 12.5 µg/mL; MIC [30]: 6.25 µg/mL; MIC [31]: 50 µg/mL; MIC [32]: 50 µg/mL; MIC [6]: 50 µg/mL
